Measured values: publication PMC4046646 (Molecular psychiatry, 2013)

How the values were obtained:
LeuT [1] = molecular target: LeuT (Aquifex aeolicus, UniProt O67854); assay: DEER spectroscopy; type: binding; conditions: 200 mM NaCl; 4-fold molar excess of Leu over LeuT
LeuT [2] = molecular target: LeuT (Aquifex aeolicus, UniProt O67854, A289M, form not given); assay: DEER spectroscopy; type: binding; conditions: 200 mM NaCl; 4-fold molar excess of Leu over LeuT

Q: `CC(C)C[C@H](N)C(=O)O` [Leu] was tested. Which “DEER spectroscopy (Q-band, 83 K), ligand-induced conformational change” value (LeuT [1]) did it give?
A: Subsequent Leu binding resets the closed EL4 conformation in the occluded conformation of the transporter

Q: And the “DEER spectroscopy (Q-band, 83 K), ligand-induced conformational change” value (LeuT [2])?
A: LeuT A289M with Na^+ and Leu bound in the vestibule has a destabilized bound structure
